Test results published in US11510852B2 (THE ROYAL INSTITUTION FOR THE ADVANCEMENT OF …, priority 2019, dated 2022).

What was measured:
[1] = UV visible spectroscopy of supernatant after addition of composite resin powder; type: binding; conditions: 306 nm methyl salicylate, 272 nm thymol
Experimental: (§1) To analyze how the different tested molecules (methyl salicylate, thymol and spearmint oil) interact with composite and the tooth structure UV Visible spectroscopy was used. Dilute solutions of the three tested molecules were prepared. […] The resulting solutions were analyzed in triplicates using UV visible spectrophotometer (Evolution 200 series, Thermo Scientific, Madison, USA) and the resulting absorbance peaks were plotted as control (FIG. 1). After this, equal weights of composite resin and hydroxy-apatite powders were added to equal volumes of the diluted solutions of the three tested molecules.
(§2) The characterization of the interaction between the staining components and both composite resin and the tooth structure was performed using UV visible spectroscopy which was chosen to characterize indirectly the insoluble powder; a method that is largely used in pharmaceutical industry. In this method, different weights of insoluble polymer are added to a known concentration of a solute with a clear fingerprint in UV-vis spectrum. After each addition, the filtered solutions are then analyzed using UV-vis spectrophotometer and the resultant effect on the UV spectrum is compared to the baseline readings.

[2] = UV visible spectroscopy of supernatant after addition of hydroxy-apatite powder; type: binding; conditions: 306 nm MeSa, 272 nm thymol
Experimental: as §1, §2

Compound	decrease of main absorbance peak ([1]; 0.3 g composite resin)	decrease of main absorbance peak ([1]; 0.5 g composite resin)	decrease of main absorbance peak ([1]; 0.8 g composite resin)	change of main absorbance peak ([2]; 0.3 g hydroxy-apatite)	change of main absorbance peak ([2]; 0.5 g hydroxy-apatite)	change of main absorbance peak ([2]; 0.8 g hydroxy-apatite)
COC(=O)c1ccccc1O [methyl salicylate]	37±3.9%	38±25%	85±12%	13±22%	11±14%	1.1±15%
Cc1ccc(C(C)C)c(O)c1 [thymol]	47±17%	55±1.2%	66±2.9%	14±3.3%	10±9.2%	7±1.6%
